Values quoted from earlier work, collected in US5843891A, “Pharmaceutical acceptable compositions containing an alcohol and a hydrophobic drug” (priority 1993, dated 1998).

Conditions: in water at 20° C.

Row | Compound | solubility in water
1 | CCCCCCCCCCO [1-decyl alcohol] | essentially insoluble
2 | CCCCCCCCO [1-octyl alcohol] | 0.05 g per 100 g
3 | CCCCCCO [Example 1-hexyl, 1-hexyl] | 0.6 g per 100 g
4 | CCO [ethyl alcohol] | infinitely soluble
